A word on the EC50: it is the concentration that produces a half-maximal response.

The record followed here is article PMC11770630 (Journal of Medicinal Chemistry, 2025).

The subject of data set [1] is MERLIN-HCT116 cells. As to the kind of experiment: MERLIN BRET biosensor assay of mitochondria-ER distance. In kind it is cell-based, human. On the technique in general: In BRET a luciferase serves as donor, and the signal depends on an acceptor being close.
In data set [2] the test system is HCT116 cells. As to conditions: 24 h, safety limit cell viability >80%; for Cell viability (MTT), safety at 1 μM: HCT116, 1 μM; for Cell viability (MTT), safety above 5 μM: HCT116, 5 and 10 μM.
The test system of data set [3] is HCT116 cells. Description: Extracellular NBD-cholesterol uptake in HCT116 cells. In kind it is cell-based, human. The settings on record: HCT116, 5 μM, after 3 h.
Data set [4] concerns ALS patient-derived lymphoblastic cell lines. Description: Extracellular NBD-cholesterol uptake in patient lymphoblastic cell lines. Type of data set: cell-based, human. As to conditions: SOD1-ALS lymphoblastoid cell lines, 5 μM, 24 h, NBD-cholesterol 1 h.
The test system of data set [5] is control and sALS lymphoblasts. As to the kind of experiment: Cholesteryl-esters determination. The settings on record: control or sALS lymphoblasts, 5 μM for 24 h. In kind it is cell-based, human.
Data set [6] relates to control and sALS lymphoblasts. Description: Quantification of lipid droplets. Type of data set: cell-based, human. The settings on record: control or sALS lymphoblasts, 5 μM for 24 h.
Data set [7] concerns sALS lymphoblasts. Description: Mitochondrial oxygen consumption rate. In kind it is cell-based, human. The settings on record: 5 μM, 24 h.
Data set [8] deals with lymphoblasts from sporadic ALS patients. As to the kind of experiment: Electron microscopy of lymphoblast cells. Type of data set: cell-based, human. The settings on record: 5 μM for 24 h.

For the compound `O=C(Nc1ccc([N+](=O)[O-])cc1Cl)c1cc(Cl)ccc1O` [Compound 1, 5-Chloro-N-(2-chloro-4-nitrophenyl)-2-hydroxybenzamide, reference compound], the EC50 in data set [1] (Homo sapiens, read-out: EC50 (BRET), HTS hit) turned out to be 8.36 µM.

Consider `O=C(Nc1ccc([N+](=O)[O-])cc1F)c1cc(Cl)ccc1O` [Compound 2, 5-Chloro-N-(2-fluoro-4-nitrophenyl)-2-hydroxybenzamide], for which, in data set [2], the “Cell viability (MTT), safety at 1 μM” value was “safe”.

For `O=C(Nc1ccccc1)c1cc(Cl)ccc1O` [Compound 24, 5-Chloro-2-hydroxy-N-phenylbenzamide], the “BBB passive permeation (PAMPA)” value is on record as “demonstrated the capability to cross the BBB through passive permeation”. Besides, the “BRET signal change (individual data)” value in [1] (higher doses, normalized to DMSO (MOCK)) is “significant BRET increases at higher doses”. Further, in data set [3], the “Extracellular cholesterol uptake capacity” value was “significantly increased”. In [4], the Extracellular cholesterol uptake result is given as “this change was not observed”. Moreover, the Cholesteryl esters levels result in data set [5] is “induce the formation of cholesteryl esters”. In data set [6], the Lipid droplet levels entry was “increase the levels of lipid droplet”. For the same compound, in data set [7], the “Basal OCR” value was “successfully restored basal OCR levels” and the Spare respiratory capacity entry was “notable improvement in spare respiratory capacity”. Besides, the “Number of MERCs (TEM)” value in data set [8] (lymphoblasts from sALS patients) is on record as “rescued the number of contacts”. In [8] (sALS lymphoblasts), the “Lipid droplets in cytosol (TEM)” value is “displayed large lipid droplets in their cytosol” and the “Mitochondrial cristae structure (TEM)” value was “cristae structure was restored”. Moreover, in data set [2], the “Cell viability (MTT), safety at 1 μM” value is “safe” and the “Cell viability (MTT), safety above 5 μM” value is “cellular safety above 5 μM”.

Turning to `O=C(Nc1ccc([N+](=O)[O-])cc1)c1cc(Cl)ccc1O` [Compound 25, 5-Chloro-2-hydroxy-N-(4-nitrophenyl)benzamide], the “BBB passive permeation (PAMPA)” value was “demonstrated the capability to cross the BBB through passive permeation”.

For the compound `N#Cc1ccc(NC(=O)c2cc(Cl)ccc2O)cc1` [Compound 27, 5-Chloro-N-(4-cyanophenyl)-2-hydroxybenzamide], the “BBB passive permeation (PAMPA)” value is “demonstrated the capability to cross the BBB through passive permeation”. In data set [2], the “Cell viability (MTT), safety at 1 μM” value is “safe” and the “Cell viability (MTT), safety above 5 μM” value was “cellular safety above 5 μM”.

Consider `O=C(Nc1cccc([N+](=O)[O-])c1)c1cc(Cl)ccc1O` [Compound 29, 5-Chloro-2-hydroxy-N-(3-nitrophenyl)benzamide], for which the “BBB passive permeation (PAMPA)” value was “demonstrated the capability to cross the BBB through passive permeation”. Also, in data set [2], the “Cell viability (MTT), safety at 1 μM” value is “safe” and the “Cell viability (MTT), safety above 5 μM” value is listed as “cellular safety above 5 μM”.
